Measured values as given in US10933077B2, “TLR4 inhibitors for the treatment of human infectious and inflammatory disorders” (UNIVERSITY OF PITTSBURGH—OF THE COMMONWEALTH SYSTEM OF …, priority 2010, dated 2021).

What was measured:
[1] = tested on: LPS-induced NFkB activation; assay: NFkB-luciferase reporter mice assay (LPS-induced endotoxemia); assay type: in vivo; conditions: LPS 2 mg/kg plus compound 1 mg/kg i.p.
Procedure: Compound preparation and delivery. All 65 identified compounds were received in solid form and stored at 4° C. until use. Stock solutions of each compound were made by dissolving the appropriate amount of each compound in dimethyl sulfoxide (DMSO) to yield a concentration of 10 mM. Immediately prior to injection into experimental animals, the compounds were diluted to an experimental concentration of 100 uM in phosphate-buffered saline (PBS). Total concentration of DMSO in the final diluted drug was 1%. Compounds were closely examined to insure that no precipitate formed prior to injection and were stored on ice until injection. All compounds were given via intraperitoneal (i.p.) injection in a total volume of 200 ul using a 1 cc syringe and 27 gauge needle. In all experiments listed below, the compounds were delivered to the experimental mice 30 minutes prior to injection with lipopolysaccharide (LPS) to induce endotoxemia. Control animals not receiving compound received 1% DMSO dissolved in PBS. Following drug injection, the mice were observed closely in their cages for signs of immediate toxicity or adverse reaction to the drug, including but not limited to piloerection, tachypnea, bleeding, abnormal or aggressive behavior, signs of altered mental status, and level of activity.
Induction of endotoxemia. All mice were housed and cared for at the Rangos Research Center, Children's Hospital of Pittsburgh (Pittsburgh, Pa.). All experiments were approved by the Children's Hospital of Pittsburgh Animal Care Committee and by the Institutional Review Board of the University of Pittsburgh. Swiss Webster (CFW) and NFkB-luciferase reporter mice were obtained from The Jackson Laboratory. Throughout the course of all experiments, mice were housed 4 per cage with access to food, water, and standard bedding. Endotoxemia was induced in all experiments by i.p. injection of LPS (Escherichia coli 0111:B4 purified by gel filtration chromatography, >99% pure, Sigma-Aldrich) at a dose of 2 mg/kg for 6 hours. At the end of each experiment, all animals were euthanized by CO2 hypoxia and cervical dislocation.
NFkB-luciferase reporter mice assay. NFkB-luciferase reporter mice, in which the […], were subjected to endotoxemia with or without pretreatment with experimental compounds. The experimental compounds treated by this assay were compounds 1-6, with compounds 1-3 tested first and compounds 4-6 tested later. For both experiments, the mice were 6 weeks old on the date of the experiment. […] After whole body imaging, an additional injection of luciferin is given and animals were euthanized, organs were harvested, and the extent of NFkB activation within various tissues was further analyzed by an additional luminescence image of the individual organs. […]

[2] = tested on: iNOS mRNA; assay: CFW-NEC mouse model (formula feeding), iNOS mRNA levels; assay type: in vivo; conditions: 1 mg/kg, i.p., once daily for the first four days of the five day model; relative to RPLO
From the text: (§1) Inducible nitric oxide synthase (iNOS) is associated with necrotizing enterocolitis (NEC) in human infants. In a second set of experiments, the CFW-NEC mouse model system for NEC was used to evaluate the effect of various compounds from TABLES 1 and 2 above on iNOS mRNA levels. A model system for NEC was induced in newborn mouse pups by formula feeding, where control animals were breast-fed (Sodhi et al., 2010, Gastroenterol. 138(1):185-196; Richardson et al., 2010, Gastroenterol. 139(3):904-917). […] Note that RPLO stands for 505 ribosomal subunit protein L15, an acknowledged housekeeping gene, which means that it is a constitutive gene expressed at relatively constant levels by all cells and is thus used as a reference for comparing other genes which may vary under experimental conditions. In this same model system, levels of TLR4 mRNA levels were also evaluated. […] In contrast, the level of TLR4 was not increased in FF animals treated with C34 (1 mg/kg, i.p. once daily for the first four days of the five day model) and indeed mRNA levels were 30 percent below normal (see FIG. 14).

[3] = tested on: TLR4 mRNA; assay: CFW-NEC mouse model (formula feeding), TLR4 mRNA levels; assay type: in vivo; conditions: 1 mg/kg, i.p. once daily for the first four days of the five day model
From the text: as §1

[4] = tested on: TNFα mRNA; assay: Human NEC tissue explants treated with LPS, TNFα mRNA; assay type: cell-based; conditions: C34 10 uM, 30 minutes pretreatment; LPS 25 ug/ml, 37° C., 3 hours
Procedure: (§2) The effect of C34 was then tested on explants of human NEC tissue. These explants were obtained from human infants suffering from NEC and were prepared from NEC-affected portions of the intestine. When explants were treated with LPS (25 ug/ml, 37° C., 3 hours) the level of TNFα mRNA (FIG. 12) and iNOS mRNA (FIG. 13) increased precipitously.

[5] = tested on: iNOS mRNA; assay: Human NEC tissue explants treated with LPS, iNOS mRNA; assay type: cell-based; conditions: C34 10 uM, 30 minutes pretreatment; LPS 25 ug/ml, 37° C., 3 hours
Procedure: as §2

[6] = Murine hemorrhagic shock (H/S) model, serum AST and ALT (liver damage); assay type: in vivo, mice; conditions: 1 mg/kg, i.p. divided in two doses (30 minutes prior to H/S and immediately prior to resuscitation); versus PBS
Procedure: An experiment was performed to test the effect of TLR4 inhibitors and C34 in particular on the tissue damage associated with hemmorhagic shock. A murine model was used in which, under sterile conditions and anesthesia induced using i.p. sodium pentobarbital (20 mg/kg), a left groin exploration was performed, and the left femoral artery was cannulated with tapered polyethylene (PE)-10 tubing and connected to a blood pressure transducer for continuous mean arterial pressure (MAP) monitoring for the duration of the experiment (6 h) as described in Sodhi, et al., 2011, Am. J. Physiol. Gastrointest. Liver Physiol. 300(5):G862-G873. To induce hemorrhagic shock, blood was withdrawn to allow the mean arterial pressure to drop to 25 mmHg over 5 minutes, and the blood pressure was maintained at this level for 150 min. The mice were then resuscitated over 10 min with lactated Ringer's solution. Sham-operated mice underwent anesthesia and femoral cannulation only. In this model system, the extent of liver damage is reflected in increased serum levels of aspartate aminotransferase (AST) and alanine transaminase (ALT).

CC(=O)NC1C(OC(C)C)OC(COC(C)=O)C(OC(C)=O)C1OC(C)=O (centres unmarked) [Compound 34, isopropyl 3,4,6-tri-O-acetyl-2-(acetylamino)-2-deoxyhexopyranoside]
NFκB signalling (luciferase imaging) [1]: reduced NFκB signalling | increase of iNOS mRNA level in formula-fed (FF) pups [2]: almost eliminated | level of TLR4 mRNA in FF animals [3]: not increased | TLR4 mRNA levels below normal ([3]; FF animals): 30% | LPS-induced increase of TNFα mRNA [4]: substantially reduced | LPS-induced increase of iNOS mRNA [5]: substantially reduced | increase in serum ALT in H/S animals [6]: inhibited the increases | increase in serum AST in H/S animals [6]: inhibited the increases in AST
